# Source: patent publication US20230097475A1, “TREATMENT FOR CHONDRODYSTROPHIA” (Kyoto University, priority 2020, published 2023)
# Columns and labels:
# [1] = system: FGFR3 ACH mice; experiment: Bone extension effect using achondroplasia model mice, male and female (Example 3); format: in vivo; conditions: male 1, 3 or 10 mg/kg, female 1, 3 or 6 mg/kg, measured at 43 days old, vs vehicle group
# Experimental: (§1) FGFR3 ACH mice (Naski, M. C. et al., Development, 1998, 125(24): 4977-88; hereinbelow, simply referred to as ACH mice) were used. FVB strain ACH mice were subjected to artificial insemination to produce a large number of F1 hybrid mice. Genomic DNA was then extracted, and the gene type was determined by a PCR method. […] Mice at the age of 43 days were euthanized, and the weight measurement and the bone (femur, tibia, and ulna) length measurement by X-ray photographing were performed. The X-ray photographing was performed using a Faxitron X-Ray DX-50 (AcroBio Corporation), and the measurements were performed with Image J. For testing significance, a Dunnett's multiple comparison test was conducted. In FIGS. 1 to 5, * indicates p<0.05, ** indicates p<0.01, and *** indicates p<0.001.
# For testing significance, a Dunnett's multiple comparison test was conducted. In FIGS. 6 to 11, * indicates p<0.05, ** indicates p<0.01, *** indicates p<0.001, and **** indicates p<0.0001.
# [2] = system: FGFR3 ACH mice; experiment: Bone extension effect using achondroplasia model mouse (Example 2); format: in vivo
# Experimental: as §1
# Subsequently, the femur was isolated from the mice after dosing. The cartilage growth plate was then stained with safranin O, and the length thereof was measured. The average width of the growth plate of ACH mice was 148.3.
# [3] = system: TD1-iPS cells and ACH-iPS cells; experiment: Drug efficacy in disease iPS cell models, chondrocyte differentiation; format: cell-based, human
# Excerpt: iPS cell lines were established from dermal fibroblasts of patients with thanatophoric dysplasia type I (TD1, R248C) and cartilage intangibility (ACH, […]), and dermal fibroblasts of healthy individuals, and induced their differentiation into chondrocytes. Cartilage tissue was formed from healthy iPS cells, whereas a cartilage component was reduced in tissue induced from TD1-iPS cells and tissue induced from ACH-iPS cells (Yamashita et al., Nature, 2014, 513 (7519): 507-11).
# Rosuvastatin was used as a positive control. As evaluation items, tissue section staining (Safranin staining), and the expression of mRNAs of COL2A1 and Aggrecan (ACAN) were used as indexes. For testing significance, an unpaired test was conducted. In FIG. 13, * indicates p<0.05.
# [4] = system: FGFR3^Y367C/+ mouse model of achondroplasia; conditions: reported in NPL 6; cited from earlier work
# [5] = biological target: mutant FGFR3G^380R/+; conditions: at 50 nM; cited from earlier work
# [6] = 1 nM, 10th week of differentiation induction, vs cells free of Compound 1, FIG. 13
Structure (SMILES),"Bone extension effect (femur, tibia, ulna length) [1]","Average width of the femur growth plate (safranin O staining) ([2]; ACH mice after dosing, dose not stated, ACH mice without compound 148.3, FIG. 4) [μm]","Bone extension effect (femur, tibia, ulna length; growth plate cartilage thickness) ([2]; ACH mice, 0.1, 1 or 3 mg/kg intraperitoneal once a day, 5 days on 2 days off, age 21 to 42 days, measured at 43 days old, vs vehicle group)","Safranin staining of glycosaminoglycans (cartilage extracellular matrix) ([3]; 1 nM added at each medium change from day 3, analysis at 10th week of differentiation induction, FIG. 12)","Expression of mRNA of ACAN [3, 6]","Expression of mRNA of COL2A1 [3, 6]",Treatment effect on mouse model of achondroplasia [4],Kinase inhibitory effect [5]
"C=CC(=O)N1CC[C@H](n2nc(C#Cc3cc(OC)cc(OC)c3)c3c(N)ncnc32)C1 [Compound 1, 1-[(3S)-3-[4-amino-3-[2-(3,5-dimethoxyphenyl)ethynyl]-1H-pyrazolo[3,4-d]pyrimidin-1-yl]-1-pyrrolidinyl]-2-propen-1-one]",concentration-dependent bone extension effect was observed,206.4,concentration-dependent bone extension effect was observed,positive safranin staining image was observed,increased,increased,,
CCN1CCN(c2ccc(Nc3cc(N(C)C(=O)Nc4c(Cl)c(OC)cc(OC)c4Cl)ncn3)cc2)CC1 [NVP-BGJ398],,,,,,,has a treatment effect,has a kinase inhibitory effect
